Several values for one entry are separate records, joined by “and”; a condition that tells them apart may be missing. Equal entries are not always repeated. Where two headings read alike, the source gives them in different places.
Assays:
male Wistar rats [1] = experiment: Mean pulmonary artery pressure (mPAP) by catheter, intermittent hypoxia PAH study; assay type: in vivo, rat; details: FIG. 1A, intermittent hypoxia FiO2 10%, RRx-001 5 mg/kg or Bosentan 50 mg/kg mixed with blood, tail injection; for mPAP, lower value of group distribution: PAH group 27, control 16; for mPAP, median value of group distribution: PAH group 30, control 17, RRx-001 p<0.05 vs PAH; for mPAP, upper value of group distribution: PAH group 33, control 20
Experimental: (§1) The study exposed 18 male Wistar rats to an isobaric chamber with intermittent hypoxia where the fraction of inspired oxygen (FiO2) is 10%.
The mPAP was recorded in FIG. 1A using a catheter introduced into the right jugular vein of the male Wistar rats and passed across the tricuspid valve and a right ventricle into the pulmonary artery. A distribution of the mPAP results for the various groups is plotted in FIG. 1A.

male Wistar rats [2] = experiment: Mean aortic pressure (mAP) by arterial catheter, intermittent hypoxia PAH study; assay type: in vivo, rat; details: FIG. 1B, RRx-001 5 mg/kg or Bosentan 50 mg/kg mixed with blood; for mAP, lower value of group distribution: PAH group 117, control 98; for mAP, median value of group distribution: PAH group 137, control 113, RRx-001 p<0.05 vs PAH; for mAP, upper value of group distribution: PAH group 147, control 116
Experimental: as §1
The second graph, FIG. 1B, is a distribution of mean aortic pressure (mAP) that was recorded by an arterial catheter inserted via the carotid artery of the male Wistar rats. The PAH group distribution has an upper value for mAP of approximately 147 mmHg, a median value for the mAP of approximately 137 mmHg, and a lower value for the mAP of approximately 117 mmHg. The RRx-001 group has an upper value for the mAP of approximately 134 mmHg, a median value for the mAP of approximately 121 mmHg, and a lower value for the mAP of approximately 116 mmHg. The p value as determined for the mAP results between the PAH group and the RRx-001 group is less than 0.05.

male Wistar rats [3] = experiment: Wet weight ratio (Fulton index) RV/(LV+SP), right ventricular hypertrophy, hypoxia PAH study; assay type: in vivo, rat; details: FIG. 2, RRx-001 5 mg/kg or Bosentan 50 mg/kg mixed with blood; for wet weight ratio RV/(LV+SP), lower value: PAH group 0.38, control 0.28; for wet weight ratio RV/(LV+SP), median value: PAH group 0.43, control 0.31; for wet weight ratio RV/(LV+SP), upper value: PAH group 0.44, control 0.33
From the text: A distribution of the collected data is plotted on the graph for the 4 groups of male Wistar rats: the control group, the PAH group, the RRx-001 group, and the Bosentan group. The calculated wet weight ratio is intended to be an indicator of right ventricular hypertrophy.
To measure the wet weight ratio, the heart was excised, the atria were removed, and the wall of the right ventrical (RV) was separated from the heart. Tissues were blotted and weighed. […] The elevated pulmonary arterial pressure was paralleled by an increase in systolic pressure, and right ventricular hypertrophy according to the Fulton index.

male Wistar rats [4] = experiment: Lung morphological changes: relative medial wall thickness and area, hypoxia PAH study; assay type: in vivo, rat; details: RRx-001 5 mg/kg or Bosentan 50 mg/kg mixed with blood; for medial wall thickness relative to external diameter, lower value / medial wall thickness relative to external diameter, median value / medial wall thickness relative to external diameter, upper value: FIG. 4A; for medial wall thickness relative to external diameter, lower value: PAH group 0.13, control 0.07; for medial wall thickness relative to external diameter, median value: PAH group 0.14, control 0.07; for medial wall thickness relative to external diameter, upper value: PAH group 0.15, control 0.08; for medial wall area relative to lumen area, lower value / medial wall area relative to lumen area, median value / medial wall area relative to lumen area, upper value: FIG. 4B; for medial wall area relative to lumen area, lower value: PAH group 0.16, control 0.11; for medial wall area relative to lumen area, median value: PAH group 0.17, control 0.12; for medial wall area relative to lumen area, upper value: PAH group 0.21, control 0.14
Experimental: To collect the data, male Wistar rats lungs were removed and fixed in paraformaldehyde, then dehydrated and embedded in paraffin for sectioning. The relative medial thickness and relative medial areas were calculated from vessels showing a clearly defined external and internal elastic lamina.

male Wistar rats [5] = experiment: Echocardiograph: ejection fraction and fractional shortening, hypoxia PAH study; details: RRx-001 5 mg/kg or Bosentan 50 mg/kg mixed with blood; for ejection fraction, lower value / ejection fraction, median value / ejection fraction, upper value: FIG. 3A; for ejection fraction, lower value: PAH group 49%, control 65%; for ejection fraction, median value: PAH group 51%, control 68%; for ejection fraction, median value / fractional shortening, median value: RRx-001 p<0.05 vs PAH; for ejection fraction, upper value: PAH group 59%, control 72%; for fractional shortening, median value / fractional shortening, upper value: FIG. 3B; for fractional shortening, median value: PAH group 31%, control 42%; for fractional shortening, upper value: PAH group 33%, control 44%
Experimental: The male Wistar rats exposed to hypoxia were then divided into 3 groups for the study. A first group of 6 male Wistar rats were untreated and labeled “PAH”. A second group of 6 male Wistar rats were treated with the RRx-001. A third group of 6 male Wistar rats were treated with Bosentan, which is a drug that is used to treat PAH.
Treatment for the second group of male Wistar rats comprised mixing 5 mg/kg RRx-001 with blood and administering the mixture via tail injection before the hypoxia exposure. Similarly, treatment for the third group of male Wistar rats comprised mixing 50 mg/kg Bosentan with blood and administering the mixture daily via tail injection before the hypoxia exposure.

male Wistar rats [6] = experiment: H&E staining of the pulmonary arteriole (pulmonary vascular remodeling); assay type: in vivo, rat; details: FIG. 10, hypoxia induced PAH rats
From the text: FIG. 10 depicts the effect of the RRx-001 and Bosentan on pulmonary vascular remodeling. Specifically, FIG. 10 depicts images showing H&E staining in the pulmonary arteriole.

male Wistar rats [7] = assay type: in vivo, rat; details: FIG. 5A, hypoxia 1 week
Experimental: (§2) Male Wistar rats were kept in an isobaric hypoxic chamber with intermittent hypoxia (FiO2=10%) for (1) week (6 hours/day, 6 day/week). […] For administration, the RRx-001 (10 mg/kg) was mixed with blood and injected via the tail at the beginning of hypoxia exposure every day. […] Untreated control animals were not administered any agents and the SHAM (Control) group was not subjected to hypoxia.
Mean pulmonary pressure (mPAP) was recorded using a catheter introduced in the right jugular vein and passed across the tricuspid valve and right ventricle into the pulmonary artery.

male Wistar rats [8] = assay type: in vivo, rat
Experimental: as §2
Mean aortic pressure (mAP) was recorded by an arterial catheter inserted via the carotid artery.

male Wistar rats [9] = assay type: in vivo, rat; remark: listed apart in the source
Experimental: To measure the wet weight ratio, the heart was excised, the atria were removed, and the wall of the right ventrical (RV) was separated from the heart. Tissues were blotted and weighed.
as §2
The wet weight ratio is an indicator of right ventricle hypertrophy. The wet weight ratios were measured according to the same procedure as set out in the description for FIG. 2.

Wistar rats = details: FIG. 9, blood

SMILES	mPAP, lower value of group distribution (male Wistar rats [1])	mPAP, median value of group distribution (male Wistar rats [1])	mPAP, upper value of group distribution (male Wistar rats [1])	mAP, lower value of group distribution (male Wistar rats [2])	mAP, median value of group distribution (male Wistar rats [2])	mAP, upper value of group distribution (male Wistar rats [2])	wet weight ratio RV/(LV+SP), lower value (male Wistar rats [3])	wet weight ratio RV/(LV+SP), median value (male Wistar rats [3])	wet weight ratio RV/(LV+SP), upper value (male Wistar rats [3])	medial wall thickness relative to external diameter, lower value (male Wistar rats [4])	medial wall thickness relative to external diameter, median value (male Wistar rats [4])	medial wall thickness relative to external diameter, upper value (male Wistar rats [4])	medial wall area relative to lumen area, lower value (male Wistar rats [4])	medial wall area relative to lumen area, median value (male Wistar rats [4])	medial wall area relative to lumen area, upper value (male Wistar rats [4])	ejection fraction, lower value (male Wistar rats [5])	ejection fraction, median value (male Wistar rats [5])	ejection fraction, upper value (male Wistar rats [5])	fractional shortening, median value (male Wistar rats [5])	fractional shortening, upper value (male Wistar rats [5])	other results
COc1ccccc1Oc1c(NS(=O)(=O)c2ccc(C(C)(C)C)cc2)nc(-c2ncccn2)nc1OCCO [Bosentan, reference compound]	approximately 21 mmHg	approximately 22 mmHg	approximately 24 mmHg	approximately 108 mmHg	approximately 120 mmHg	approximately 126 mmHg	approximately 0.32	approximately 0.35	approximately 0.39	approximately 0.09	approximately 0.10	approximately 0.12	approximately 0.14	approximately 0.16	approximately 0.17	approximately 52%	approximately 59%	approximately 63%	approximately 38%	approximately 42%	
O=C(CBr)N1CC([N+](=O)[O-])([N+](=O)[O-])C1 [RRx-001, 2-bromo-1-(3,3-dinitroazetidin-1-yl) ethan-1-one]	approximately 23 mmHg	approximately 26 mmHg	approximately 28 mmHg	approximately 116 mmHg	approximately 121 mmHg	approximately 134 mmHg	approximately 0.34	approximately 0.35	approximately 0.39	approximately 0.07	approximately 0.08	approximately 0.09	approximately 0.14	approximately 0.14	approximately 0.16	approximately 60%	approximately 66%	approximately 69%	approximately 38%	approximately 39%	increases in pulmonary vascular wall thickness and muscularization of the pulmonary arteriole (male Wistar rats [6]): inhibited; median mPAP (male Wistar rats [7]; RRx-001 10 mg/kg + nitrite (NaNO2) 10 mg/kg s.c.): ~18 mmHg; median mPAP (male Wistar rats [7]; RRx-001 10 mg/kg + nitrite (NaNO2) 20 mg/kg s.c.): ~16 mmHg; median mPAP (male Wistar rats [7]; RRx-001 10 mg/kg + nitrite (NaNO2) 40 mg/kg s.c.): ~15 mmHg; median mPAP (male Wistar rats [7]; RRx-001 10 mg/kg mixed with blood daily, nitrite 0, saline/0 nitrite 23, control 20, SHAM 17): approximately 17 mmHg; median mAP (male Wistar rats [8]; FIG. 5B, hypoxia 1 week, RRx-001 10 mg/kg + nitrite 10 mg/kg s.c.): ~115 mmHg; median mAP (male Wistar rats [8]; FIG. 5B, hypoxia 1 week, RRx-001 10 mg/kg + nitrite 20 mg/kg s.c.): ~107 mmHg; median mAP (male Wistar rats [8]; FIG. 5B, hypoxia 1 week, RRx-001 10 mg/kg + nitrite 40 mg/kg s.c.): ~102 mmHg; median mAP (male Wistar rats [8]; FIG. 5B, hypoxia 1 week, RRx-001 10 mg/kg mixed with blood daily, nitrite 0, saline/0 nitrite 137, control 124, SHAM 109): approximately 116 mmHg; median wet weight ratio RV/(LV+SP) (male Wistar rats [9]; FIG. 7/8, hypoxia 1 week, RRx-001 10 mg/kg + nitrite 10 mg/kg): approximately 0.40 mg/mg; median wet weight ratio RV/(LV+SP) (male Wistar rats [9]; FIG. 7/8, hypoxia 1 week, RRx-001 10 mg/kg + nitrite 20 mg/kg): ~0.35 mg/mg; median wet weight ratio RV/(LV+SP) (male Wistar rats [9]; FIG. 7/8, hypoxia 1 week, RRx-001 10 mg/kg + nitrite 40 mg/kg): ~0.32 mg/mg; effect on right ventricle hypertrophy (wet weight ratio) (male Wistar rats [9]; FIG. 7/8, hypoxia study with nitrite, result in words): has an effect on right ventricle hypertrophy; median wet weight ratio RV/(LV+SP) (male Wistar rats [9]; rat, in vivo, 10 mg/kg): approximately 0.37 mg/mg; median metHb concentration (Wistar rats; RRx-001 10 mg/kg + nitrite 10 mg/kg): ~3%; median metHb concentration (Wistar rats; RRx-001 10 mg/kg + nitrite 20 mg/kg): ~7%; median metHb concentration (Wistar rats; RRx-001 10 mg/kg + nitrite 40 mg/kg): ~12%; median metHb concentration (Wistar rats; RRx-001 10 mg/kg, nitrite 0, saline/0 nitrite and controls 1%): approximately 1%
O=NO [nitrite, reference compound]																					effect of nitrite on mAP versus mPAP (male Wistar rats [8]; rat, in vivo): systemic effect on mAP but less significant on mPAP; median mAP (male Wistar rats [8]; rat, in vivo): ~122 mmHg and ~126 mmHg and ~120 mmHg

From patent US20260248761A1, “COMPOSITIONS AND METHODS FOR TREATMENT OF PULMONARY HYPERTENSION” (EpicentRx, Inc., priority 2022, published 2026)
